Measurements: patent US20240279220A1, “INDOLE COMPOUNDS AND METHODS OF USE” (Genzyme Corporation, priority 2021, published 2024)

Tested on: NBD1/3D
Assay: Aggregation analysis using differential static light scattering (DSLS), NBD1 thermal stability
Type: binding, Human
Conditions: ΔTagg versus DMSO control; compound at 100 μM
Method in brief: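 Thermal stabilisation reported as ΔTagg, i.e. aggregation temperature relative to averaged DMSO wells. Tagg came from the inflection of differential static light scattering imaged 25–70 °C while NBD1 (0.2 mg/ml, Tris pH 7.6 buffer containing ATP, MgCl2, DTT, glycerol) was ramped 1 °C/min.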

Row | Structure (SMILES) | DSLS NBD1/3D Human Stability delta-T (° C.) @ 100 (μM)
1 | CC1CC(c2cccc(CCC(=O)O)c2)(c2cnc(-c3cc(Oc4c(F)cc5[nH]ccc5c4F)ccc3F)[nH]2)CC(C)O1 (stereo not shown) [Example 142, 3-(3-(4-(2-(5-((4,6-Difluoro-1H-indol-5-yl)oxy)-2-fluorophenyl)-1H-imidazol-5-yl)-2,6-dimethyltetrahydro-2H-pyran-4-yl)phenyl)propanoic acid] | A (A: T ≥ 10° C.)
2 | CC(c1cccc(CCC(=O)O)c1F)n1ccc(-c2cc(Oc3c(F)cc4[nH]ccc4c3S(C)(=O)=O)ccc2F)n1 (single isomer, unassigned) [Example 41A, 3-(2-fluoro-3-(1-(3-(2-fluoro-5-((6-fluoro-4-(methylsulfonyl)-1H-indol-5-yl)oxy)phenyl)-1H-pyrazol-1-yl)ethyl)phenyl)propanoic acid] | C (C: ≤5° C.)
3 | O=C(O)/C=C/c1cccc(Cn2ccc(-c3cccc(Oc4ccc5[nH]ccc5c4CO)c3)n2)c1 [Example 9, (E)-3-(3-((3-(3-((4-(Hydroxymethyl)-1H-indol-5-yl)oxy)phenyl)-1H-pyrazol-1-yl)methyl)phenyl)acrylic acid] | B (B: 5-10° C.)
4 | CC(O)(c1cc(F)cc(CCC(=O)O)c1)c1c[nH]c(-c2cc(Oc3c(F)cc4[nH]ccc4c3F)ccc2F)n1 (stereo not shown) [Example 220, 3-(3-(1-(2-(5-((4,6-Difluoro-1H-indol-5-yl)oxy)-2-fluorophenyl)-1H-imidazol-4-yl)-1-hydroxyethyl)-5-fluorophenyl)propanoic acid] | B (B: 5-10° C.)
5 | CC(c1cnc(-c2cc(Oc3c(F)cc4[nH]ccc4c3F)ccc2F)[nH]1)c1cc(F)cc(CCC(=O)O)c1F (single isomer, unassigned) [Example 132A, 3-(3-(1-(2-(5-((4,6-difluoro-1H-indol-5-yl)oxy)-2-fluorophenyl)-1H-imidazol-5-yl)ethyl)-2,5-difluorophenyl)propanoic acid] | C (C: ≤5° C.)
6 | O=C(O)CCCCCCc1cccc(Cc2nnc(-c3cccc(Oc4ccc5[nH]ccc5c4)c3)[nH]2)c1 [Example 256, 7-(3-((5-(3-((1H-indol-5-yl)oxy)phenyl)-4H-1,2,4-triazol-3-yl)methyl)phenyl)heptanoic acid] | C (C: ≤5° C.)
7 | Cc1c(Oc2ccc(F)c(-c3ccn(Cc4cccc(CCC(=O)O)c4)n3)c2)c(F)cc2[nH]ccc12 [Example 14, 3-(3-((3-(2-fluoro-5-((6-fluoro-4-methyl-1H-indol-5-yl)oxy)phenyl)-1H-pyrazol-1-yl)methyl)phenyl)propanoic acid] | B (B: 5-10° C.)
8 | COC(=O)CCc1cccc(Cc2c[nH]c(-c3cc(Oc4c(F)cc5[nH]ccc5c4F)ccc3F)n2)c1 [Example 101, methyl 3-(3-((2-(5-((4,6-difluoro-1H-indol-5-yl)oxy)-2-fluorophenyl)-1H-imidazol-4-yl)methyl)phenyl)propanoate] | C (C: ≤5° C.)
9 | C[S+]([O-])c1c(Oc2cccc(-c3ncn(Cc4cccc(CCC(=O)O)c4)n3)c2)c(F)cc2[nH]ccc12 (stereo not shown) [Example 33, 3-(3-((3-(3-((6-Fluoro-4-(methylsulfinyl)-1H-indol-5-yl)oxy)phenyl)-1H-1,2,4-triazol-1-yl)methyl)phenyl)propanoic acid] | B (B: 5-10° C.)
10 | Cc1c(Oc2ccc(F)c(-c3nc(Cc4cccc(CCC(=O)O)c4F)c[nH]3)c2)c(F)c(F)c2[nH]ccc12 [Example 112, 3-(3-((2-(5-((6,7-difluoro-4-methyl-1H-indol-5-yl)oxy)-2-fluorophenyl)-1H-imidazol-4-yl)methyl)-2-fluorophenyl)propanoic acid] | B (B: 5-10° C.)
11 | Cc1c(Oc2cccc(-c3ccn(Cc4cccc(CCCO)c4)n3)c2)ccc2[nH]ccc12 [Example 6, 3-(3-((3-(3-((4-Methyl-1H-indol-5-yl)oxy)phenyl)-1H-pyrazol-1-yl)methyl)phenyl)propan-1-ol] | C (C: ≤5° C.)
12 | Cc1c(Oc2ccc(F)c(-c3ncc(C(C)(O)c4cccc(CCC(=O)O)c4)[nH]3)c2)cc(F)c2[nH]ccc12 (stereo not shown) [Example 195, 3-(3-(1-(2-(2-fluoro-5-((7-fluoro-4-methyl-1H-indol-5-yl)oxy)phenyl)-1H-imidazol-5-yl)-1-hydroxyethyl)phenyl) propanoic acid] | B (B: 5-10° C.)
13 | CC(c1cnc(-c2cc(Oc3c(F)cc4[nH]ccc4c3CN3CCCS3(=O)=O)ccc2F)[nH]1)c1cccc(CCC(=O)O)c1F (single isomer, unassigned) [Example 134A, 3-(3-(1-(2-(5-((4-((1,1-dioxidoisothiazolidin-2-yl)methyl)-6-fluoro-1H-indol-5-yl)oxy)-2-fluorophenyl)-1H-imidazol-5-yl)ethyl)-2-fluorophenyl)propanoic acid] | B (B: 5-10° C.)
14 | Cc1c(Oc2cccc(-c3ccn(Cc4cccc(CCC(=O)O)c4)n3)c2)ccc2[nH]ccc12 [Example 1, 3-(3-((3-(3-((4-Methyl-1H-indol-5-yl)oxy)phenyl)-1H-pyrazol-1-yl)methyl)phenyl)propanoic acid] | B (B: 5-10° C.)
15 | Cc1c(Oc2ccc(F)c(-c3ncc(C(C)(C#N)c4cccc(CCC(=O)O)c4)[nH]3)c2)c(F)c(F)c2[nH]cc(Cl)c12 (stereo not shown) [Example 57, 3-(3-(1-(2-(5-((3-chloro-6,7-difluoro-4-methyl-1H-indol-5-yl)oxy)-2-fluorophenyl)-1H-imidazol-5-yl)-1-cyanoethyl)phenyl)propanoic acid] | B (B: 5-10° C.)
16 | Cc1c(Oc2ccc(F)c(-c3nc(Cc4cccc(CCC(=O)O)c4)nn3C)c2)c(F)cc2[nH]ccc12 [Example 242, 3-(3-((5-(2-Fluoro-5-((6-fluoro-4-methyl-1H-indol-5-yl)oxy)phenyl)-1-methyl-1H-1,2,4-triazol-3-yl)methyl)phenyl)propanoic acid] | B (B: 5-10° C.)
17 | CC(O)(c1cccc(/C=C2\SC(=O)NC2=O)c1)c1cnc(-c2cccc(Oc3c(F)cc4[nH]ccc4c3F)c2)[nH]1 (stereo not shown) [Example 210, (Z)-5-(3-(1-(2-(3-((4,6-Difluoro-1H-indol-5-yl)oxy)phenyl)-1H-imidazol-5-yl)-1-hydroxyethyl)benzylidene)thiazolidine-2,4-dione] | B (B: 5-10° C.)
18 | CC(c1ccn(-c2cccc(Oc3c(F)cc4[nH]ccc4c3S(C)(=O)=O)c2)n1)c1cccc(CCC(=O)O)c1F (single isomer, unassigned) [Example 23A, 3-(2-fluoro-3-(1-(1-(3-((6-fluoro-4-(methylsulfonyl)-1H-indol-5-yl)oxy)phenyl)-1H-pyrazol-3-yl)ethyl)phenyl)propanoic acid] | C (C: ≤5° C.)
19 | Cc1c(Oc2ccc(F)c(-c3nnc(Cc4ccc5c(c4)CC(C(=O)O)C5)[nH]3)c2)c(F)cc2[nH]ccc12 (stereo not shown) [Example 245, 5-((5-(2-Fluoro-5-((6-fluoro-4-methyl-1H-indol-5-yl)oxy)phenyl)-4H-1,2,4-triazol-3-yl)methyl)-2,3-dihydro-1H-indene-2-carboxylic acid] | C (C: ≤5° C.)
